Details: ambient temperature, after approximately 24 hours, FIG. 6A
Experimental: Samples were taken at approximately 1, 3, 6, and 24 hours, and analyzed by UV spectrophotometry using a SpectraMax M2 UV-VIS spectrophotometer. Wavelength calibration and photometric accuracy were performed using the SpectraMax Pro 5 software as an internal calibration of the instrument. The detector was zeroed with a reference well on a microplate filled with water on which data were obtained, and those data were subtracted from collected data. Samples were analyzed in the UV range at room temperature in the wells of a 96-well quartz plate.

For CC(/C=C1\SC(=S)N(CC(=O)O)C1=O)=C\c1ccccc1 [choline hydrogen diepalrestat], the “dissolved concentration of epalrestat (solubility in water)” value was 249 µg/mL.
